Data on five compounds can be found in US20260327264A1, “PEPTIDE INHIBITORS OF INTERLEUKIN-23 RECEPTOR” (Zealand Pharma A/S, priority 2023, published 2026).

Read-outs that look alike come from different tables or passages of the source. *1 amine or outer side, *2 acyl side, *3 side chain or, on linkers, in order; H or OH if unused. Where a SMILES comes first, the peptide text is derived from it. Bridges are numbered along the chain shown (N, C = ends). [ ]: non-standard residue; d: D form. 2Nal = N[C@@H](Cc1ccc2ccccc2c1)C(=O)O; AEF = NCCOc1ccc(C[C@H](N)C(=O)O)cc1; X1 = O=C(Cc1ccc(CN[*:1])cc1)[*:2]; 3Pal = N[C@@H](Cc1cccnc1)C(=O)O; αMeL = CC(C)C[C@](C)(N)C(=O)O; Dab = NCC[C@H](N)C(=O)O; Sar = CNCC(=O)O

A short description of series [1]: Peptide stability in simulated intestinal fluid (SIF). It is filed as in vitro ADME. The note with it: simulated intestinal fluid; for remaining at 1 h, 10 µM: pig, SIF, pH 6.8, pancreatin, 37° C. The method, boiled down: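 Peptide at 10 μM final in USP-type SIF (10 g/L porcine pancreatin, phosphate buffer pH 6.8), shaken at 37 °C. Samples at 0, 1 and 4 h quenched in acetonitrile/0.1% formic acid and analysed by LC-HRMS. Percent remaining calculated from absolute peak areas relative to time zero.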

For series [2], the system named is IL-23 mediated STAT3 signalling (DB cells). As to the kind of experiment: Functional inhibition of IL-23 mediated STAT3 signalling (phospho-STAT3 Tyr705) in DB cells. Type of series: cell-based, human. The note with it: for hIL-23 (pSTAT3) antagonist % inhibition: Table 3-2, maximal inhibitory response, EC80 of hIL-23. A digest of the protocol:
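Phospho-STAT3 in lysed DB cells quantified by MSD kit after 90 min exposure to EC80 human IL-23, following 15 min compound pretreatment (37° C, 5% CO2). IC50 and maximal inhibition derived from curves normalized between IL-23-only and buffer-only controls.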

In another series the target is T1, human IL-23R (Homo sapiens, UniProt Q5VWK5).
T1 construct: Nanoluc luciferase (Nluc); secretion signal encoded by the plasmid (not specified); expressed in transfected cells; crude membranes used in the assay
T1 sequence (Q5VWK5 22-629): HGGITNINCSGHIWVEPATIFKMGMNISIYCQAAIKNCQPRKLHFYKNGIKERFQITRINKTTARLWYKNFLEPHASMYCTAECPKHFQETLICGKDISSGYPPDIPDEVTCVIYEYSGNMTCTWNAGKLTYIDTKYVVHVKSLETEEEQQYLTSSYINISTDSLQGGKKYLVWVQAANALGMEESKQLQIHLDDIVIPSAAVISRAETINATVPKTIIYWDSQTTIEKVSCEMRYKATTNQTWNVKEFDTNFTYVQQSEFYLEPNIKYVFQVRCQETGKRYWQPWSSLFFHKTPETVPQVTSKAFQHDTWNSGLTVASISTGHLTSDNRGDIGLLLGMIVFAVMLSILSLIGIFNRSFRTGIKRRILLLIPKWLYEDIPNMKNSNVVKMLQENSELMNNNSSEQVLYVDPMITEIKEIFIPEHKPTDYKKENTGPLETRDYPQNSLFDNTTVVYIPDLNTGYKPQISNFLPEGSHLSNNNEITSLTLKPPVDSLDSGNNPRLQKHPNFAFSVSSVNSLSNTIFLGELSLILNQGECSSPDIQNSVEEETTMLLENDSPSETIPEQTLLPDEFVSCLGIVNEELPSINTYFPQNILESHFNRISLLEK
Kind of series: Binding assay: displacement of fluorophore (TAMRA)-labelled reference compound from human IL-23R (BRET, Nluc-IL23R fusion protein membranes). The note with it: for Emax: read-out: % displacement (hIL-23R binding); for potency of the compound (in words): potency against IL-23R.

Setting [3] is: Table 3-2, EC80 of hIL-23, read-out: hIL-23 (pSTAT3) antagonist IC50.
[4] abbreviates: EC80 of hIL-23, read-out: IC50 (pSTAT3).

Excerpt for human IL-23R: The assay principle relies on Bioluminescence Resonance Energy Transfer (BRET) between a fluorophore-labelled reference compound binding to the IL-23R part of a fusion protein consisting of the IL-23R fused to a Nanoluc luciferase enzyme (Nanoluc). The Nanoluc is placed in the N-terminus in close proximity to the binding domain of the ligand. Upon close proximity between the fluorophore of the fluorophore-labelled compound and the Nanoluc of the fusion protein, bioluminescence energy generated from conversion of a Nanoluc substrate, is transferred to the fluorophore resulting in an increase in BRET. In presence of an unlabelled compound, the unlabelled compound displaces the fluorophore-labelled peptide from its binding site resulting in a decrease in BRET. The concentration for which half of the fluorophore-labelled peptide is displaced by the unlabelled compound depends on the affinity of the compound for the IL-23R, and is termed the IC50 concentration.
The plasmid also contained a gene to confer resistance for the antibiotic hygromycin. A cell line stably expressing the Nluc-IL23R fusion protein was generated by transfection of HEK293 cells with the expression plasmid and selected with hygromycin for 3 weeks in Growth medium consisting of DMEM w/Glutamax-I containing, 10% V/V FBS, 1% V/V P/S, 1 mM Sodium Pyruvate, and 1× NEAA, and 0.3 mg/mL hygromycin. The remaining cells were propagated and considered a stable expressing Nluc-IL23R fusion protein pool clone.
Cells expressing the Nluc-IL23R fusion protein were expanded in Growth medium and membranes prepared by homogenization of a cell pellet from 18 T175 flasks (4° C. in subsequent steps). The cell pellet was lysed Tris 10 mM, 7.5, 1 mM EDTA and protease inhibitors (Complete, Roche) and homogenized using a 15 mL glass-dounce by 50 strokes. The homogenate was spun at spin @1500 rpm for 10 min, the supernatant transferred to SV-34 tubes and spun at 40000 g for 20 min at 4° C. to pellet the crude membranes. The supernatant was then removed, the pellet resuspended in 5 mL buffer containing 50 mM HEPES pH 7.4, 5 mM EGTA, and 5 mM MgCl2, and homogenized. Aliquots of the resuspended and homogenized membranes containing the Nluc-IL23R fusion protein were stored at −80° C. until use.
The plate was sealed with light impermeable plate seals, and incubated on an orbital shaker 400 rpm for 2 hours at room temperature. To determine the BRET ratio, the plate seal was removed and 25 μL of the Nanoluc substrate (Promega N1572) diluted 1:500 was added to each well and incubated for 1-2 minutes on an orbital shaker at 400 rpm. […] The BRET ratio was calculated as the fluorescence from the TAMRA/nanoluc bioluminescence.
Compound potency (IC50) and maximal displacement (% displacement) were estimated by computer-aided curve fitting using a 4-parameter logistic (4PL) non-linear model. The IC50 and maximal for each compound was determined by computer-aided curve fitting using a 4-parameter logistic (4PL) non-linear model.

Regarding `CNC(=O)CC[C@@H]1NC(=O)[C@H](Cc2c[nH]c3ccccc23)NC(=O)[C@@H]2CCC(=O)NCC[C@H](NC1=O)C(=O)N[C@@H](Cc1ccc(OCCN)cc1)C(=O)N[C@@H](Cc1ccc3ccccc3c1)C(=O)N[C@@](C)(CC(C)C)C(=O)N[C@H](C(=O)N[C@@H](CCN)C(=O)N[C@@H](Cc1cccnc1)C(=O)NC)CCC(=O)NCc1ccc(cc1)CC(=O)N[C@@H](CO)C(=O)N2` [Compound 29, [4-Aminomethyl-phenylacetyl](1c)*SE(2c)W[Q(Me)][Dab](2c)[Y(2-aminoethoxy)][2-Nal][2-Me-Leu]E(1c)[Dab][3-(3-Pyridyl)-Ala]-[NHMe]] ([X1]SEWE(NHMe)[Dab][AEF][2Nal][αMeL]E[Dab][3Pal]-NHMe; lactam 3-6, N-10), the amount remaining at 1 h, 10 µM in series [1] is 91%. The IC50 in series [2] (setting [3]) amounted to 0.042 nM. For the same compound, the “hIL-23 (pSTAT3) antagonist % inhibition” value in series [2] was 99%. At human IL-23R, the IC50 is 0.011 nM and the Emax turned out to be 96%.

As to `CNC(=O)[C@H](Cc1cccnc1)NC(=O)[C@H](CCN)NC(=O)[C@@H]1CCC(=O)NCc2ccc(cc2)CC(=O)N[C@@H](C)C(=O)N[C@H]2CCC(=O)NCC[C@H](NC(=O)[C@H](CCC(N)=O)NC(=O)[C@H](Cc3c[nH]c4ccccc34)NC2=O)C(=O)N[C@@H](Cc2ccc(OCCN)cc2)C(=O)N[C@@H](Cc2ccc3ccccc3c2)C(=O)N[C@@](C)(CC(C)C)C(=O)N1` [Compound 20, [4-Aminomethyl-phenylacetyl](1c)*AE(2c)WQ[Dab](2c)[Y(2-aminoethoxy)][2-Nal][2-Me-Leu]E(1c)[Dab][3-(3-Pyridyl)-Ala]-[NHMe]], the IC50 in series [2] (setting [3]) was 0.026 nM. In series [2], the “hIL-23 (pSTAT3) antagonist % inhibition” value worked out at 101%. Further, the Emax on human IL-23R worked out at 97%.

With `CNC(=O)[C@H](Cc1cccnc1)NC(=O)[C@H](CCN)NC(=O)[C@@H]1CCC(=O)NCc2ccc(cc2)CC(=O)N[C@@H](C)C(=O)N[C@H]2CCC(=O)NCC[C@H](NC(=O)[C@H](CCC(N)=O)NC(=O)[C@H](Cc3c[nH]c4ccccc34)NC2=O)C(=O)N[C@@H](Cc2c[nH]c3ncccc23)C(=O)N[C@@H](Cc2ccc3ccccc3c2)C(=O)NC(C)(C)C(=O)N1` [Compound 43, [4-Aminomethyl-phenylacetyl](1c)*AE(2c)WQ[Dab](2c)[7-AzaTrp][2-Nal][Aib]E(1c)[Dab][3-(3-Pyridyl)-Ala]-[NHMe]], the share remaining at 1 h, 10 µM in series [1] is 96%. Moreover, the IC50 in series [2] (setting [3]) is 0.54 nM. The “hIL-23 (pSTAT3) antagonist % inhibition” value in series [2] turned out to be 98%. Besides, the Emax on human IL-23R is 101%.

With `CC(C)C[C@]1(C)NC(=O)[C@H](Cc2ccc3ccccc3c2)NC(=O)[C@H](Cc2ccc(OCCN)cc2)NC(=O)[C@@H]2CCNC(=O)CC[C@H](NC(=O)[C@H](CO)NC(=O)Cc3ccc(cc3)CNC(=O)CC[C@@H](C(=O)N[C@@H](CCN)C(=O)N[C@@H](Cc3cccnc3)C(=O)N(C)CC(N)=O)NC1=O)C(=O)N[C@@H](Cc1c[nH]c3ccccc13)C(=O)N[C@@H](CCC(N)=O)C(=O)N2` [Compound 9, [4-Aminomethyl-phenylacetyl](1c)*SE(2c)WQ[Dab](2c)[Y(2-aminoethoxy)][2-Nal][2-Me-Leu]E(1c)[Dab][3-(3-Pyridyl)-Ala][Sar]-[NH2]] ([X1]SEWQ[Dab][AEF][2Nal][αMeL]E[Dab][3Pal][Sar]-NH2; lactam 3-6, N-10), in series [1], the share remaining at 1 h, 10 µM is 102% and the “SIF stability (in words)” value is recorded as “SIF stable”. Besides, in series [2] (setting [4]), the IC50 was 0.025 nM. The IC50 in series [2] (setting [3]) was 0.025 nM. Further, the “hIL-23 (pSTAT3) antagonist % inhibition” value in series [2] turned out to be 97%. Further, at human IL-23R, the “potency of the compound (in words)” value was “particularly potent” and the Emax is 100%.

For the compound `CNC(=O)[C@H](Cc1cccnc1)NC(=O)[C@H](CCN)NC(=O)[C@@H]1CCC(=O)NCc2ccc(cc2)CC(=O)N[C@@H](CO)C(=O)N[C@H]2CCC(=O)NCC[C@H](NC(=O)[C@H](CCC(N)=O)NC(=O)[C@H](Cc3c[nH]c4ccccc34)NC2=O)C(=O)N[C@@H](Cc2ccc(OCCN)cc2)C(=O)N[C@@H](Cc2ccc3ccccc3c2)C(=O)N[C@@](C)(CC(C)C)C(=O)N1` [Compound 8, [4-Aminomethyl-phenylacetyl](1c)*SE(2c)WQ[Dab](2c)[Y(2-aminoethoxy)][2-Nal][2-Me-Leu]E(1c)[Dab][3-(3-Pyridyl)-Ala]-[NHMe]], in series [1], the fraction remaining at 1 h, 10 µM is 96% and the “SIF stability (in words)” value was “SIF stable”. In addition, the IC50 in series [2] (setting [4]) came out at 0.053 nM. In series [2] (setting [3]), the IC50 is 0.053 nM. In addition, the “hIL-23 (pSTAT3) antagonist % inhibition” value in series [2] came out at 101%. Moreover, on human IL-23R, the “potency of the compound (in words)” value is “particularly potent” and the Emax was 103%.
